US8134015B2, “Compound inhibiting in vivo phosphorous transport and medicine containing the same” (Kyowa Hakko Kirin Co., Ltd., priority 2003, dated 2012)
pIC50: −log10 of the molar value.

These compounds were tested against T1, rat NaPi-2b (Rattus norvegicus, UniProt Q9JJ09) (assay: Sodium-dependent phosphate uptake of Xenopus oocytes which expressed NaPi-2b (32P)). Conditions: Xenopus oocytes expressing rat NaPi-2b, 32P radioactive phosphorus; read-out: IC50 (phosphate uptake inhibitory activity).
T1 construct: expressed in transfected cells; host or cells: Xenopus oocytes injected with cRNA
T1 sequence (Q9JJ09 1-695): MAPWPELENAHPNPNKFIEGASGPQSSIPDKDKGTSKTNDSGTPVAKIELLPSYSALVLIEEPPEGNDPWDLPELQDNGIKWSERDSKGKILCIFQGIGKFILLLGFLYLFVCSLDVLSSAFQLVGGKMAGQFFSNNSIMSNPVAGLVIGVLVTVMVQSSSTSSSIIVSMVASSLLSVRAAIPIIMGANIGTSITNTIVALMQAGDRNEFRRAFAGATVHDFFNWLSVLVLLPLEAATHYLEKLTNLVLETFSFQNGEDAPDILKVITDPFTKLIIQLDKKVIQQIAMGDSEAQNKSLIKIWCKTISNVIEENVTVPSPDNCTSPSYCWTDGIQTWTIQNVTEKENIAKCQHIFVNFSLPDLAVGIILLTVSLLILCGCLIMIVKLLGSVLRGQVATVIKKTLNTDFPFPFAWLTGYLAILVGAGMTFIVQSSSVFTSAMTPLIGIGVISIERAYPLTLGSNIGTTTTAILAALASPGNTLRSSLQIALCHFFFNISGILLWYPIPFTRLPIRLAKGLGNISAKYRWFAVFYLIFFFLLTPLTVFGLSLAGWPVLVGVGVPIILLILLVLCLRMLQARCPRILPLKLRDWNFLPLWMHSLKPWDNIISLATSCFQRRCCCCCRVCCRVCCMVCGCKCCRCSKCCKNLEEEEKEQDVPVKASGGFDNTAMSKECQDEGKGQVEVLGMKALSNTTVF
Type: cell-based
Procedure, shortened: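 Rat NaPi-2b cloned from small-intestine cDNA; cRNA injected into Xenopus oocytes, expression for 2 days. Phosphate uptake inhibition measured with 32P; percent inhibition at 300 μM and 100 μM read from the same inhibition curve.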

Question: With Cc1cccc(/C=N/NC(=O)c2cc(Br)ccc2NC(=O)c2ccc(CN3CCC(O)CC3)cc2)c1 [Compound 326, N-[4-Bromo-2-(3-methyl-benzylidene-hydrazinocarbonyl)-phenyl]-4-(4-hydroxy-piperidin-1-ylmethyl)-benzamide] as the compound, how does the pIC50 read?
Answer: The pIC50 was 5.68.

Question: How did the pIC50 turn out when COc1ccc(/C(C)=N/NC(=O)c2cc(Br)ccc2NC(=O)c2cccc(CN(CC(C)O)CC(C)O)c2)cc1 (centres unmarked) [Compound 997, 3-{[Bis-(2-hydroxy-propyl)-amino]-methyl}-N-{4-bromo-2-[1-(4-methoxy-phenyl)-ethylidene-hydrazinocarbonyl]-phenyl}-benzamide] was run?
Answer: Its pIC50 is 5.10.

Question: With CC(O)CN(Cc1cccc(C(=O)Nc2sc3ccccc3c2C(=O)N/N=C/c2ccc(Cl)c(C(F)(F)F)c2)c1)CC(C)O (centres unmarked) [Compound 796, 3-{[Bis-(2-hydroxy-propyl)-amino]-methyl}-N-[3-(4-chloro-3-trifluoromethyl-benzylidene-hydrazinocarbonyl)-benzo[b]thiophen-2-yl]-benzamide] as the compound, how does the pIC50 read?
Answer: Its pIC50 is 6.46.

Question: With Cc1ccc(/C=N/NC(=O)c2cc(Br)ccc2NC(=O)c2ccc(CN3CCC(CO)CC3)cc2)cc1 [Compound 333, N-[4-Bromo-2-(4-methyl-benzylidene-hydrazinocarbonyl)-phenyl]-4-(4-hydroxymethyl-piperidin-1-ylmethyl)-benzamide] as the compound, how does the pIC50 read?
Answer: Its pIC50 is 4.76.

Question: With COc1ccc(C(=O)Nc2ccccc2C(=O)N/N=C/c2ccccc2C)cc1OC [Compound 3, 3,4-Dimethoxy-N-[2-(2-methyl-benzylidene-hydrazinocarbonyl)-phenyl]-benzamide] as the compound, how does the pIC50 read?
Answer: The pIC50 was 5.15.

Question: O=C(Nc1ccc(Cl)cc1C(=O)N/N=C/c1ccc(F)cc1)c1cccnc1 [Compound 185, N-[4-Chloro-2-(4-fluoro-benzylidene-hydrazinocarbonyl)-phenyl]-nicotinamide] was tested. Which pIC50 did it give?
Answer: Its pIC50 is 5.69.

Question: How did the pIC50 turn out when Cc1ccc(/C=N/NC(=O)c2cc(Br)ccc2NC(=O)c2ccc(CSCCCO)cc2)cc1C [Compound 273, N-[4-Bromo-2-(3,4-dimethyl-benzylidene-hydrazinocarbonyl)-phenyl]-4-(3-hydroxy-propylsulfanylmethyl)-benzamide] was run?
Answer: Its pIC50 is 6.82.

Question: With COc1ccc(/C=N/NC(=O)c2cc(Br)ccc2NC(=O)c2ccc(CN3CCC(N4CCCCC4)CC3)cc2)cc1 [Compound 314, 4-[1,4′]Bipiperidinyl-1′-ylmethyl-N-[4-bromo-2-(4-methoxy-benzylidene-hydrazinocarbonyl)-phenyl]-benzamide] as the compound, how does the pIC50 read?
Answer: The pIC50 was 5.47.

Question: CCN(CC)CCN(C)Cc1cccc(C(=O)Nc2ccc(OCCCCF)cc2C(=O)N/N=C/c2ccc(Cl)c(C(F)(F)F)c2)c1 [Compound 1060, N-[2-(4-Chloro-3-trifluoromethyl-benzylidene-hydrazinocarbonyl)-4-(4-fluoro-butoxy)-phenyl]-3-{[(2-diethylamino-ethyl)-methyl-amino]-methyl}-benzamide] was tested. Which pIC50 did it give?
Answer: The pIC50 was 6.36.

Question: With O=C(Nc1ccccc1C(=O)N/N=C/c1cccc(F)c1)c1ccncc1 [Compound 134, N-[2-(3-Fluoro-benzylidene-hydrazinocarbonyl)-phenyl]-isonicotinamide] as the compound, how does the pIC50 read?
Answer: Its pIC50 is 5.11.

Question: How did the pIC50 turn out when COc1ccc(C(=O)Nc2ccccc2C(=O)N/N=C/c2cccc(O)c2)cc1 [Compound 50, N-[2-(3-Hydroxy-benzylidene-hydrazinocarbonyl)-phenyl]-4-methoxy-benzamide] was run?
Answer: Its pIC50 is 4.71.

Question: With O=C(Nc1ccc(Br)cc1C(=O)N/N=C/c1ccc(Cl)c(C(F)(F)F)c1)c1ccc(CN2CCN(CCO)CC2)cc1 [Compound 321, N-[4-Bromo-2-(4-chloro-3-trifluoromethyl-benzylidene-hydrazinocarbonyl)-phenyl]-4-[4-(2-hydroxy-ethyl)-piperazin-1-ylmethyl]-benzamide] as the compound, how does the pIC50 read?
Answer: The pIC50 was 5.58.

Question: COc1ccc(/C=N/NC(=O)c2cc(Br)ccc2NC(=O)c2ccc(OC)c(OC)c2)cc1Br [Compound 97, N-[4-Bromo-2-(3-bromo-4-methoxy-benzylidene-hydrazinocarbonyl)-phenyl]-3,4-dimethoxy-benzamide] was tested. Which pIC50 did it give?
Answer: The pIC50 was 6.29.

Question: O=C(Nc1ccc(N2CCN(CCO)CC2)cc1C(=O)N/N=C/c1ccc(Cl)c(C(F)(F)F)c1)c1cccc(CSCCO)c1 [Compound 923, N-{2-(4-Chloro-3-trifluoromethyl-benzylidene-hydrazinocarbonyl)-4-[4-(2-hydroxy-ethyl)-piperazin-1-yl]-phenyl}-3-(2-hydroxy-ethylsulfanylmethyl)-benzamide] was tested. Which pIC50 did it give?
Answer: The pIC50 was 4.73.

Question: How did the pIC50 turn out when O=C(Nc1ccc(Br)cc1C(=O)N/N=C/c1ccc(F)cc1)c1ccc(F)cc1 [Compound 106, N-[4-Bromo-2-(4-fluoro-benzylidene-hydrazinocarbonyl)-phenyl]-4-fluoro-benzamide] was run?
Answer: Its pIC50 is 5.29.

Question: With CCCN(CCC)c1ccc(NC(=O)c2cccc(CN(C)CCN(CC)CC)c2)c(C(=O)N/N=C/c2ccc(Cl)c(C(F)(F)F)c2)c1 [Compound 911, N-[2-(4-Chloro-3-trifluoromethyl-benzylidene-hydrazinocarbonyl)-4-dipropylamino-phenyl]-3-{[(2-diethylamino-ethyl)-methyl-amino]-methyl}-benzamide] as the compound, how does the pIC50 read?
Answer: Its pIC50 is > 6.00.

Question: Cc1csc(NC(=O)c2cccc(CN(CCO)CCO)c2)c1C(=O)N/N=C/c1ccc(Cl)c(C(F)(F)F)c1 [Compound 790, 3-{[Bis-(2-hydroxy-ethyl)-amino]-methyl}-N-[3-(4-chloro-3-trifluoromethyl-benzylidene-hydrazinocarbonyl)-4-methyl-thiophen-2-yl]-benzamide] was tested. Which pIC50 did it give?
Answer: Its pIC50 is 5.36.

Question: With COc1ccc(C(=O)Nc2ccccc2C(=O)N/N=C/c2cccc(C#N)c2)cc1OC [Compound 9, N-[2-(3-Cyano-benzylidene-hydrazinocarbonyl)-phenyl]-3,4-dimethoxy-benzamide] as the compound, how does the pIC50 read?
Answer: Its pIC50 is 5.37.

Question: With Cc1ccc(/C=N/NC(=O)c2cc(Br)ccc2NC(=O)c2ccc(CSc3ccncc3)cc2)cc1 [Compound 258, N-[4-Bromo-2-(4-methyl-benzylidene-hydrazinocarbonyl)-phenyl]-4-(pyridin-4-ylsulfanylmethyl)-benzamide] as the compound, how does the pIC50 read?
Answer: Its pIC50 is > 5.52.

Question: With COc1ccc(/C=N/NC(=O)c2c(NC(=O)c3cccc(CN(CC(C)O)CC(C)O)c3)sc3ccccc23)cc1 (centres unmarked) [Compound 797, 3-{[Bis-(2-hydroxy-propyl)-amino]-methyl}-N-[3-(4-methoxy-benzylidene-hydrazinocarbonyl)-benzo[b]thiophen-2-yl]-benzamide] as the compound, how does the pIC50 read?
Answer: The pIC50 was 5.47.

Question: How did the pIC50 turn out when Cc1ccc(C=NNC(=O)c2cc(Cl)ccc2NC(=O)c2cccc(CS(=O)(=O)CCO)c2)cc1C [Compound 493, N-[4-Chloro-2-(3,4-dimethyl-benzylidene-hydrazinocarbonyl)-phenyl]-3-(2-hydroxy-ethanesulfonylmethyl)-benzamide] was run?
Answer: The pIC50 was > 5.52.

Question: How did the pIC50 turn out when O=C(Nc1ccc(Cl)cc1C(=O)N/N=C/c1ccc(Cl)c(C(F)(F)F)c1)c1cccnc1 [Compound 189, N-[4-Chloro-2-(4-chloro-3-trifluoromethyl-benzylidene-hydrazinocarbonyl)-phenyl]-nicotinamide] was run?
Answer: Its pIC50 is 5.83.

Question: With O=C(Nc1ccc(Br)cc1C(=O)N/N=C/c1cccc(F)c1)c1ccco1 [Compound 151, Furan-2-carboxylic acid [4-bromo-2-(3-fluoro-benzylidene-hydrazinocarbonyl)-phenyl]-amide] as the compound, how does the pIC50 read?
Answer: The pIC50 was 5.51.

Question: How did the pIC50 turn out when CN(CCO)Cc1cccc(C(=O)Nc2ccc(Cl)cc2C(=O)N/N=C/c2ccc(Cl)c(C(F)(F)F)c2)c1 [Compound 399, N-[4-Chloro-2-(4-chloro-3-trifluoromethyl-benzylidene-hydrazinocarbonyl)-phenyl]-3-{[(2-hydroxy-ethyl)-methyl-amino]-methyl}-benzamide] was run?
Answer: Its pIC50 is 5.44.

Question: Cc1ccc(/C=N/NC(=O)c2cc(Br)ccc2NC(=O)c2cccs2)cc1C [Compound 161, Thiophene-2-carboxylic acid [4-bromo-2-(3,4-dimethyl-benzylidene-hydrazinocarbonyl)-phenyl]-amide] was tested. Which pIC50 did it give?
Answer: The pIC50 was 6.02.

Same assay, conditions: phosphate uptake, oocytes expressing rat NaPi-2b; 300 μM, determined from inhibition curve

Question: With C/C(=N\NC(=O)c1ccccc1NC(=O)c1cccnc1)c1ccc(C)cc1 [Compound 251, N-[2-(1-p-Toluyl-ethylidene-hydrazinocarbonyl)-phenyl]-nicotinamide] as the compound, how does the inhibition at 300 µM read?
Answer: Its inhibition at 300 µM is 31.2%.

Question: How did the inhibition at 300 µM turn out when Cc1ccc(/C=N/NC(=O)c2scc(C)c2NC(=O)c2cccc(CN3CCN(CCO)CC3)c2)cc1C [Compound 532, N-[2-(3,4-Dimethyl-benzylidene-hydrazinocarbonyl)-4-methyl-thiophen-3-yl]-3-[4-(2-hydroxy-ethyl)-piperazin-1-ylmethyl]-benzamide] was run?
Answer: Its inhibition at 300 µM is 76%.

Question: For COc1cccc(/C=N/NC(=O)c2cc(Br)ccc2NC(=O)c2ccc(CN3CCN(c4ccccn4)CC3)cc2)c1 [Compound 778, N-[4-Bromo-2-(3-methoxy-benzylidene-hydrazinocarbonyl)-phenyl]-4-(4-pyridin-2-yl-piperazin-1-ylmethyl)-benzamide], which inhibition at 300 µM is on record?
Answer: The inhibition at 300 µM was 39.1%.

Question: Which inhibition at 300 µM does the source give for Cc1ccc(CNNC(=O)c2cc(Cl)ccc2NC(=O)c2cccc(CSCCO)c2)cc1 [Compound 547, N-{4-Chloro-2-[N′-(4-methyl-benzyl)-hydrazinocarbonyl]-phenyl}-3-(2-hydroxy-ethylsulfanylmethyl)-benzamide] here?
Answer: The inhibition at 300 µM was 66.6%.
